Results on 13 compounds are retold here after ChEMBL document CHEMBL1201862, “PubChem BioAssay data set” (2004).

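Each compound was tested at five concentrations against cells in 96-well plates for 48 hours. GI50 = concentration required for 50% inhibition of growth.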 Calls of active or inactive are those of the source. No stated cut-off is given here; in the data, active = GI50 up to about 1.1 µM and inactive = higher.

Holding throughout (assay): NCI anticancer screen, dose series, 48 h
For assay [1], the system named is A549.
Assay [2] has as its system ACHN.
Assay [3] deals with EKVX.
Assay [4] concerns HCC 2998.
For assay [5], the system named is HOP-92.
Assay [6] relates to HT-29.
Assay [7] relates to LOX IMVI.
Assay [8] relates to OVCAR-5.
In assay [9] the test system is SF-539.
Assay [10] concerns SK-MEL-5.
Assay [11] deals with SK-OV-3.
Assay [12] concerns SN12C.
The test system of assay [13] is U-251.
For assay [14], the system named is UACC-257.
In assay [15] the test system is HCT-15.
Assay [16] deals with Malme-3M.

Consider `COc1cc(OC)c(Oc2cccc(OC)c2OC)c(OC)c1`, for which the GI50 in [1], in [2], in [3], in assay [4], in assay [5] and in assay [6] was > 100 µM (inactive) throughout. Further, the GI50 in [7], in assay [8], in assay [9], in assay [10], in [11] and in assay [12] was > 100 µM (inactive) throughout. In addition, the GI50 in assay [13] and in assay [14] was > 100 µM (inactive) each time.
As to `COC(=O)/C(C#N)=C1\NC(=O)c2ccccc21`, the GI50 in [1] was > 100 µM (inactive); in assay [2] it was > 100 µM (inactive); in assay [3], > 100 µM (inactive); in assay [4], > 100 µM (inactive); in [15] it was more than 100 µM; in assay [5], > 100 µM (inactive). Also, the GI50 in [6], in assay [7], in assay [16], in assay [8], in assay [9] and in assay [10] was > 100 µM (inactive) each time. In addition, the GI50 in assay [11], in assay [12], in assay [13] and in assay [14] was > 100 µM (inactive) each time.
As for `Clc1cccc(Cl)c1C1SCc2nc3ccccc3n21` (stereo not drawn), the GI50 in [1] is > 100 µM (inactive); in assay [2] it was > 100 µM (inactive); in assay [3] it was 78.3 µM (inactive); in assay [4] it was > 100 µM (inactive); in [15] it was 24.9 µM; in [5], 9.48 µM (inactive). Moreover, the GI50 in assay [6] is 43.9 µM (inactive); in assay [7], > 100 µM (inactive); in [16], > 100 µM (inactive); in assay [8] it was > 100 µM (inactive); in assay [9] it was > 100 µM (inactive); in assay [10] it was 9.04 µM (inactive). The GI50 was > 100 µM (inactive) in assay [11], > 100 µM (inactive) in [12], > 100 µM (inactive) in [13] and 21.1 µM (inactive) in assay [14].
In the case of `CC1(C)O[C@@H](CCl)C[C@H](C#N)O1`, the GI50 in assay [1] was > 100 µM (inactive); in assay [2] it was > 100 µM (inactive); in assay [3], > 100 µM (inactive); in assay [4] it was > 100 µM (inactive); in [15], more than 100 µM; in assay [5], > 100 µM (inactive). For the same compound, the GI50 in [6], in assay [7], in assay [16], in assay [8], in [9] and in assay [10] was > 100 µM (inactive) throughout. Further, the GI50 in assay [11], in assay [12], in assay [13] and in [14] was > 100 µM (inactive) in each case.
Turning to `Cc1cccc(C(C)C)c1NC(=O)C(=O)C(C(=O)c1ccccc1F)C1OC(=O)c2ccccc21` (stereo not drawn), the GI50 in assay [1] was 37.5 µM (inactive); in assay [2] it was 36.4 µM (inactive); in [3] it was 32.7 µM (inactive); in assay [4], 13.7 µM (inactive); in [15] it was 20.5 µM; in [5], 23.4 µM (inactive). In addition, the GI50 in assay [6] was 29.6 µM (inactive); in assay [7], 13.4 µM (inactive); in assay [16], 9.82 µM (inactive); in [8] it was 40 µM (inactive); in assay [9], 8.28 µM (inactive); in assay [10] it was 14.1 µM (inactive). Further, the GI50 in [11] is 18.9 µM (inactive); in [12] it was 16.6 µM (inactive); in assay [13] it was 7.16 µM (inactive); in assay [14], 13 µM (inactive).
Turning to `CC1=NOC(=O)/C1=C/c1cccc2ccccc12`, the GI50 in assay [1] was > 100 µM (inactive); in [2], > 100 µM (inactive); in assay [3], > 100 µM (inactive); in [4], > 100 µM (inactive); in assay [15], more than 100 µM; in assay [5] it was > 100 µM (inactive). The GI50 in assay [6], in assay [7], in assay [16], in assay [8], in [9] and in [10] was > 100 µM (inactive) throughout. The GI50 in assay [11], in assay [12], in [13] and in assay [14] was > 100 µM (inactive) each time.
As for `CC1=C(C(=O)CC(=O)C(=O)Nc2ccc(Cl)cc2C)Sc2ccccc2N1`, the GI50 was > 100 µM (inactive) in assay [1]; > 100 µM (inactive) in assay [2]; > 100 µM (inactive) in assay [3]; > 100 µM (inactive) in assay [4]; more than 100 µM in assay [15]; 22.8 µM (inactive) in [5]. For the same compound, the GI50 in assay [6], in assay [7], in assay [16], in [8], in assay [9] and in assay [10] was > 100 µM (inactive) in each case. Besides, the GI50 in assay [11], in [12], in [13] and in assay [14] was > 100 µM (inactive) in each case.
With `Cc1ccccc1NC(=O)C(=O)CC(=O)C1CCOC1=O` (stereo not drawn), the GI50 in assay [1] is > 100 µM (inactive); in assay [2] it was > 100 µM (inactive); in assay [3], > 100 µM (inactive); in assay [4], > 100 µM (inactive); in assay [15], more than 100 µM; in [5] it was > 100 µM (inactive). For the same compound, the GI50 was > 10 µM (inactive) in assay [6]; > 100 µM (inactive) in assay [7]; > 100 µM (inactive) in assay [16]; > 100 µM (inactive) in assay [8]; > 100 µM (inactive) in assay [9]; > 100 µM (inactive) in [10]. Moreover, the GI50 in assay [11], in assay [12], in [13] and in [14] was > 100 µM (inactive) each time.
With `COC(=O)c1nc(NN)cc(O)c1CCCCCc1c(O)nc(NN)nc1C(=O)OC`, the GI50 in assay [1] is > 100 µM (inactive); in assay [2], > 100 µM (inactive); in assay [3], > 100 µM (inactive); in assay [4], > 100 µM (inactive); in [15], more than 100 µM; in assay [5] it was > 100 µM (inactive). The GI50 in assay [6], in assay [7], in [16], in assay [8], in [9] and in assay [10] was > 100 µM (inactive) in each case. In addition, the GI50 in assay [11], in [12], in assay [13] and in assay [14] was > 100 µM (inactive) in each case.
For `O=C(NCCCC/N=c1/cccccc1NCCCCNC(=O)OCc1ccccc1)OCc1ccccc1`, the GI50 in [1] is 26.5 µM (inactive); in assay [2], 23.2 µM (inactive); in assay [3] it was 22.9 µM (inactive); in assay [4], 15.7 µM (inactive); in [15], 8.05 µM; in assay [5], 3.14 µM (inactive). The GI50 in [6] is 6.04 µM (inactive); in [7], 16.4 µM (inactive); in assay [16], 20.4 µM (inactive); in assay [8], 17.1 µM (inactive); in assay [9], 16.3 µM (inactive); in [10], 16.4 µM (inactive). Moreover, the GI50 in [11] was 20.5 µM (inactive); in assay [12], 18.8 µM (inactive); in [13], 16.1 µM (inactive); in [14] it was 15.2 µM (inactive).
For `O=C1OCC/C1=N/O`, the GI50 was > 100 µM (inactive) in assay [1]; > 100 µM (inactive) in assay [2]; > 100 µM (inactive) in assay [3]; > 100 µM (inactive) in assay [4]; more than 100 µM in assay [15]; > 100 µM (inactive) in assay [5]. For the same compound, the GI50 in [6], in assay [16], in assay [8], in assay [9], in assay [10] and in assay [11] was > 100 µM (inactive) throughout. Also, the GI50 in [12], in assay [13] and in assay [14] was > 100 µM (inactive) in each case.
With `CC(C)(C)[Si](Nc1ccccc1)(c1ccccc1)c1ccccc1`, the GI50 in assay [1] was 13 µM (inactive); in assay [2], 16.2 µM (inactive); in assay [3], 16 µM (inactive); in [4] it was 16.1 µM (inactive); in assay [15], 15 µM; in [5], 13.9 µM (inactive). Also, the GI50 in assay [6] was 14.7 µM (inactive); in assay [7], 12.2 µM (inactive); in assay [16] it was 22.1 µM (inactive); in [9] it was 12.5 µM (inactive); in [10], 17.5 µM (inactive); in assay [11] it was 17.1 µM (inactive). Moreover, the values for the GI50 in assay [12], in assay [13] and in [14] were 15 µM (inactive), 13.8 µM (inactive) and 14.9 µM (inactive), respectively.
With `Cn1cnc([N+](=O)[O-])c1Sc1n[nH]c(-c2ccc(Cl)cc2)n1`, the GI50 in assay [1] was 25.3 µM (inactive); in [2], 18.7 µM (inactive); in assay [3], 23.9 µM (inactive); in assay [4] it was 21.3 µM (inactive); in assay [5] it was 14.5 µM (inactive); in [6], 19.1 µM (inactive). Besides, the GI50 in assay [7] was 15 µM (inactive); in assay [16] it was 11.1 µM (inactive); in [8], 23.4 µM (inactive); in assay [9] it was 15.3 µM (inactive); in assay [10] it was 15.7 µM (inactive); in assay [11], 30.9 µM (inactive). Besides, the GI50 in [12] was 15.5 µM (inactive); in [13], 19.5 µM (inactive); in assay [14], 17.1 µM (inactive).
